The values that follow come from paper PMC8550792, “Evolution of kinase polypharmacology across HSP90 drug discovery” (Cell Chemical Biology, 2021).

What all share (assay): biochemical
Format in all cases: biochemical

The target in test [1] is T1, 382 unique human kinases (Homo sapiens, UniProt Q02763, P883A).
T1 construct: purchased Reaction Biology (HotSpot contract assay)
To be noted: TIE2 (P883A), 10 uM; for remaining activity at 10 µM: read-out: % Enzyme Activity (relative to DMSO controls).

Test [2] has as its target T2, 382 unique human kinases (Homo sapiens, UniProt P42679).
T2 construct: purchased Reaction Biology (HotSpot contract assay)
T2 sequence (P42679 1-507): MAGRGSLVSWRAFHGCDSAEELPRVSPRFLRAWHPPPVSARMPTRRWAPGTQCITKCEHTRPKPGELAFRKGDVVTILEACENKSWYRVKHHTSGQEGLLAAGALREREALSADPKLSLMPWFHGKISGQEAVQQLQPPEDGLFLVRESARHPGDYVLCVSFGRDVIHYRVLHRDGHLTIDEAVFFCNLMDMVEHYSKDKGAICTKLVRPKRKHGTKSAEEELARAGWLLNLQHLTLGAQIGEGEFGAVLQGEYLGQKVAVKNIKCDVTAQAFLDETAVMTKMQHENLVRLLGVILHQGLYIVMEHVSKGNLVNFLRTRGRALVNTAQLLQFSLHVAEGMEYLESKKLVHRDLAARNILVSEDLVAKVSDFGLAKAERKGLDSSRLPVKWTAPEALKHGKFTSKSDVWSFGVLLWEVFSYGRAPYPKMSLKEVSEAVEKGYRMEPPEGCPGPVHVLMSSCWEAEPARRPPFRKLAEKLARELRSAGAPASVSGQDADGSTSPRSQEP
The following applies: kinase CTK/MATK, compound 10 uM; for remaining activity at 10 µM: read-out: % Enzyme Activity (relative to DMSO controls).

Test [3] concerns the target T3, 382 unique human kinases (Homo sapiens, UniProt P22607).
T3 construct: purchased Reaction Biology (HotSpot contract assay)
The following applies: FGFR3, 10 uM; for remaining activity at 10 µM: read-out: % Enzyme Activity (relative to DMSO controls).

The target in test [4] is T4, 382 unique human kinases (Homo sapiens, UniProt Q04771).
T4 construct: purchased Reaction Biology (HotSpot contract assay)
T4 sequence (Q04771 21-509): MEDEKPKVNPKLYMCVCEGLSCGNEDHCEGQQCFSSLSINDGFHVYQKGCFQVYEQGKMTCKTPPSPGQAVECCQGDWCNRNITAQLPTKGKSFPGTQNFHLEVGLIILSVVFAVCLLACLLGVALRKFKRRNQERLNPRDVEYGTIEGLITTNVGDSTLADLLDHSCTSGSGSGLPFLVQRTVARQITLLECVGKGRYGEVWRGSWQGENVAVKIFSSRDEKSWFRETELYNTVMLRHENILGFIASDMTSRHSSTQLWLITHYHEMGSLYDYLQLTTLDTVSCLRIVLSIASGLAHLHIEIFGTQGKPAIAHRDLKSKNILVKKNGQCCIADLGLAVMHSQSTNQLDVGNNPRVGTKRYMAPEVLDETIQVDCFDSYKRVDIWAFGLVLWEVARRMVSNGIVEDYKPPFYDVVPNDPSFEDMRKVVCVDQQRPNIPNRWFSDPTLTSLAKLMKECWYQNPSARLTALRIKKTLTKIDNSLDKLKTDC
The following applies: ALK2/ACVR1, compound at 10 uM, duplicate values; for remaining activity at 10 µM: read-out: % Enzyme Activity (relative to DMSO controls).

Test [5] has as its target T5, 382 unique human kinases (Homo sapiens, UniProt Q9UM73, T1151M).
T5 construct: purchased Reaction Biology (HotSpot contract assay)
To be noted: ALK (T1151M), [ATP] 50 µM, compound 10 uM; for remaining activity at 10 µM: read-out: % Enzyme Activity (relative to DMSO controls).

The target in test [6] is T6, 382 unique human kinases (Homo sapiens, UniProt P36888).
T6 construct: purchased Reaction Biology (HotSpot contract assay)
T6 sequence (P36888 27-993): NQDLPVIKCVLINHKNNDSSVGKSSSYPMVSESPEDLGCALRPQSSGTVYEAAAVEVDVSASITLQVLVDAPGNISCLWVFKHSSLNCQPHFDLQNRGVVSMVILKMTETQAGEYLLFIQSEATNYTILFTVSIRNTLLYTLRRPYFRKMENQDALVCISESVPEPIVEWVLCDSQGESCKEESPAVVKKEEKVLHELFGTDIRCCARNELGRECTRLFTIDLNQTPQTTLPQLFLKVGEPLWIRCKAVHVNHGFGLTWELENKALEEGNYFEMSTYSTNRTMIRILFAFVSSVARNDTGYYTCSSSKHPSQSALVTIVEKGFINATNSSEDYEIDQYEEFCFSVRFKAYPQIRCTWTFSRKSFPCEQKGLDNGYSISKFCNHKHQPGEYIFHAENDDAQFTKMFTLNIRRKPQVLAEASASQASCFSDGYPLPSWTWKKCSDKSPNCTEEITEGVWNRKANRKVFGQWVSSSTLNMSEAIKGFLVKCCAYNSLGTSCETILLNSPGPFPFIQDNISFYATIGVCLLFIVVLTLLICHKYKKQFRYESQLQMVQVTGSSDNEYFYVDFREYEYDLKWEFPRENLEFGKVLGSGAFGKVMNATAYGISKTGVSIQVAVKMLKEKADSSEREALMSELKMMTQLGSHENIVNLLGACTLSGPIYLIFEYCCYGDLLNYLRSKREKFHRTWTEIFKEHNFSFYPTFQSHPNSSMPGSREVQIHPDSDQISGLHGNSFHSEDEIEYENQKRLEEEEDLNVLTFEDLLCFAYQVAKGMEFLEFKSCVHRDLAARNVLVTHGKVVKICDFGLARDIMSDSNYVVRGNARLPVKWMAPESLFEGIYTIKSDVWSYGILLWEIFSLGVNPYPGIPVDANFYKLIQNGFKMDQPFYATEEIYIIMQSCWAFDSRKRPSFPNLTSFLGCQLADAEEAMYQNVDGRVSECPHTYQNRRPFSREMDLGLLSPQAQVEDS
The following applies: FLT3, [ATP] 50 µM, compound 10 uM; for remaining activity at 10 µM: read-out: % Enzyme Activity (relative to DMSO controls).

Test [7] addresses T7, 382 unique human kinases (Homo sapiens, UniProt P51956).
T7 construct: purchased Reaction Biology (HotSpot contract assay)
T7 sequence (P51956 1-506): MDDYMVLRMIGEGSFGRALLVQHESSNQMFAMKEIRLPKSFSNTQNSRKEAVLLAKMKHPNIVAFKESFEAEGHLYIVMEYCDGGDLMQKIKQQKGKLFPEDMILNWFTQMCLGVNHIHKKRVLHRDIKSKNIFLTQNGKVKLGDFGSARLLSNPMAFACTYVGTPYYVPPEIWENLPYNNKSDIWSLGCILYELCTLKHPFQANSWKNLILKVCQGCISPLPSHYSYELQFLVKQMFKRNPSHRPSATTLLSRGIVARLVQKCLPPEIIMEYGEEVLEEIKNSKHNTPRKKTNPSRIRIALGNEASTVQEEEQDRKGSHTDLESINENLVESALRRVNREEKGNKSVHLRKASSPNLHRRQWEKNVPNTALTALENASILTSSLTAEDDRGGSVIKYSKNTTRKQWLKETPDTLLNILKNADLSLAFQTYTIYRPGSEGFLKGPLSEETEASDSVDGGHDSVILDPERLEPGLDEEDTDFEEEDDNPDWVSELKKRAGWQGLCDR
The following applies: NEK3, 10 uM; for remaining activity at 10 µM: read-out: % Enzyme Activity (relative to DMSO controls).

In test [8] the target is T8, 382 unique human kinases (Homo sapiens, UniProt P00519, G250E).
T8 construct: purchased Reaction Biology (HotSpot contract assay)
To be noted: ABL1 (G250E), [ATP] 10 µM, compound 10 uM; for remaining activity at 10 µM: read-out: % Enzyme Activity (relative to DMSO controls).

T5 sequence (Q9UM73 19-1620 T1151M): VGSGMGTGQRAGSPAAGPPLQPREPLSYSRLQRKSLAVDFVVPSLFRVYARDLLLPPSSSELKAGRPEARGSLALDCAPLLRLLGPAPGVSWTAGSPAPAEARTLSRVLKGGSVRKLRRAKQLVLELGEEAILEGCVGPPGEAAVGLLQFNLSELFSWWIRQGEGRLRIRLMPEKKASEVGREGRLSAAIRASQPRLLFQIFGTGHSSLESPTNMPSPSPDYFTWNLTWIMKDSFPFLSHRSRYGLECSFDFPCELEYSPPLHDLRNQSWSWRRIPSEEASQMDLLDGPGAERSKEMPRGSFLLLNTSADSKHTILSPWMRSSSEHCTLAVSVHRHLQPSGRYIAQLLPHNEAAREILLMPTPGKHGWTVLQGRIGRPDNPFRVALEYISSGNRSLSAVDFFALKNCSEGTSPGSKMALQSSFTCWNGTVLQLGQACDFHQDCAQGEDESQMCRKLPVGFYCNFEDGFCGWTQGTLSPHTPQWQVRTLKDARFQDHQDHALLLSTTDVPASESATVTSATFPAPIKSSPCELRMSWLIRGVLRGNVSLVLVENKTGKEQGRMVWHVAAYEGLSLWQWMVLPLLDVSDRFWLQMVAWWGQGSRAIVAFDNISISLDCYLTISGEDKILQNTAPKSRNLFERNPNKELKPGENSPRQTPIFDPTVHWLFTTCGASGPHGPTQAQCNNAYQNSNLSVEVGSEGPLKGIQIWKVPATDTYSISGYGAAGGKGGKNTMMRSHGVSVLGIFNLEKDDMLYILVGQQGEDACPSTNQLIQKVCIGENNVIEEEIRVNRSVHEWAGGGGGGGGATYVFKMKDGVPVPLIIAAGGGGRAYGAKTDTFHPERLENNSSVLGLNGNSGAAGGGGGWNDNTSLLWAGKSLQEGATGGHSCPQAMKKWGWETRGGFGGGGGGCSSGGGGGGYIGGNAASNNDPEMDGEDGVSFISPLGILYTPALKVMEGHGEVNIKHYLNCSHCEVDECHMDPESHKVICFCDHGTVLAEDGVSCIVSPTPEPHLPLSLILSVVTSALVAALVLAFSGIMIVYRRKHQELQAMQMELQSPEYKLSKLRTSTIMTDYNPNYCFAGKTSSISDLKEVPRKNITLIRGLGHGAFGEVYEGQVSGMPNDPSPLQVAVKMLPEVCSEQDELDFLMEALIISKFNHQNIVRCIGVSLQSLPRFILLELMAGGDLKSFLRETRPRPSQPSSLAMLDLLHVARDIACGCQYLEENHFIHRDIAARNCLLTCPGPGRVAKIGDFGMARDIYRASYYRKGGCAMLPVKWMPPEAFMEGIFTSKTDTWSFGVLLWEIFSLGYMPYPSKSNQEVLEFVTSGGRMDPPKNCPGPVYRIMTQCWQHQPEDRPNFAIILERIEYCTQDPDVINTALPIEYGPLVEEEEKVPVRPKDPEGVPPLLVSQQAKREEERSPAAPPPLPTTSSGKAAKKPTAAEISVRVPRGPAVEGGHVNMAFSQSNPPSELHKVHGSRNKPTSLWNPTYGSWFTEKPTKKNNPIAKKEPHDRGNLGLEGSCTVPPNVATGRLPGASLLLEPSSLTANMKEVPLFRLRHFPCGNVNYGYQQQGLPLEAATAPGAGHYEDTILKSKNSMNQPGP
T3 sequence (P22607 23-806): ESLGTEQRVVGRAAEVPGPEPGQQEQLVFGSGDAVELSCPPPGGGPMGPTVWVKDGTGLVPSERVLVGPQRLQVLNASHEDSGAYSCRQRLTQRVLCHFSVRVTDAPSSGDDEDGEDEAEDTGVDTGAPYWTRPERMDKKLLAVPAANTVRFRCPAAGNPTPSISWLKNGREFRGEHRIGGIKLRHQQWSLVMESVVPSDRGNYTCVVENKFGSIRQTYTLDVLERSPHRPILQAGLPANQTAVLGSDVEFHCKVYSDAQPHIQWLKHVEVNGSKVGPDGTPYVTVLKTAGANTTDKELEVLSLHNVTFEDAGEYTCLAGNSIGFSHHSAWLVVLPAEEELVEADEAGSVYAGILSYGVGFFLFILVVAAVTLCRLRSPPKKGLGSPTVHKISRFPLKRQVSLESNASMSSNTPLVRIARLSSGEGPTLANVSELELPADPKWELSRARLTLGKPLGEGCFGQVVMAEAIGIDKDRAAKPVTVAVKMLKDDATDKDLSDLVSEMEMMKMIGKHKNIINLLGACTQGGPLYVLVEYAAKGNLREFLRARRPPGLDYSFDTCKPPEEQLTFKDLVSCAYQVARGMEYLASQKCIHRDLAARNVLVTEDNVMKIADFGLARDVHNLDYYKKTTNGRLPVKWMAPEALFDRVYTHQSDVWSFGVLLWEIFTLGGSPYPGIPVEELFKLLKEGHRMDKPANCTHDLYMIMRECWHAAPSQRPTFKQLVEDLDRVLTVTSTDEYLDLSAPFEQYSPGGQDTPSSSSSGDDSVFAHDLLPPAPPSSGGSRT
T1 sequence (Q02763 23-1124 P883A): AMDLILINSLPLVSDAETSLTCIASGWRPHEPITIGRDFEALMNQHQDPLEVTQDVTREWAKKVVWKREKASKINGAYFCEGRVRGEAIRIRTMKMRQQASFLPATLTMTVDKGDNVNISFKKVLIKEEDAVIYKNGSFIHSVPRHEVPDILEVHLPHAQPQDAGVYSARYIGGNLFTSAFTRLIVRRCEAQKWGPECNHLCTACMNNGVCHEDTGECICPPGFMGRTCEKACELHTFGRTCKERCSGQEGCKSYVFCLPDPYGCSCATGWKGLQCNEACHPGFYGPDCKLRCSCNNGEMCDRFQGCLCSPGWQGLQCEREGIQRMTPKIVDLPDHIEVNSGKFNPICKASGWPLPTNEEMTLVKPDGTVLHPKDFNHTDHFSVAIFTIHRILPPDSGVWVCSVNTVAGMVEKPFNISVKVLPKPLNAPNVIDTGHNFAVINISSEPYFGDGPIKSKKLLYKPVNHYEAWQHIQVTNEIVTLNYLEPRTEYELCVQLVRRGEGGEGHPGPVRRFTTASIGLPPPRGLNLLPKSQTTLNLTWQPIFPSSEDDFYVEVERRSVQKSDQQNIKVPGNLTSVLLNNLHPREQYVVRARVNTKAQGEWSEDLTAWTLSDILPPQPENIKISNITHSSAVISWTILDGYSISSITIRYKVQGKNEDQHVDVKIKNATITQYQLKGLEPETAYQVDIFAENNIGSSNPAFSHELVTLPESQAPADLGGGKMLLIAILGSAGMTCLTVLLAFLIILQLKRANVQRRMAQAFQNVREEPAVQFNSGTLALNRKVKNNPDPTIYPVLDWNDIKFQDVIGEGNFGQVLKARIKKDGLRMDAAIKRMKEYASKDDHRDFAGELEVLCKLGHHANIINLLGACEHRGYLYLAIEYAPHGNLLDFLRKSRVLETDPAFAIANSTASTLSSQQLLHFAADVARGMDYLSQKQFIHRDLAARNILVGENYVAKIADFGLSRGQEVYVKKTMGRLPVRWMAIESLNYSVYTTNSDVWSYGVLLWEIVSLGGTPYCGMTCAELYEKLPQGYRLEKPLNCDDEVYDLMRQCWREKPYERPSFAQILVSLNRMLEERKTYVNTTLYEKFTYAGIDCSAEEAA

Take `CC(C)c1cc(-c2n[nH]c(=O)n2-c2ccc3c(ccn3C)c2)c(O)cc1O` [Ganetespib (STA9090)]: the remaining activity at 10 µM in test [1] amounted to 74.5%; in test [2], 80%; in test [3], 62.6%; in test [4], 125%.

On to `CC(C)c1cc(-c2n[nH]c(=O)n2-c2ccc3c(ccn3C)c2)c(O)cc1O` [Ganetespib], for which the remaining activity at 10 µM in test [5] was determined as 45.5%; in test [6] it was 30.4%; in test [7], 117%; in test [8], 5.88%.

In the case of `CCNC(=O)c1noc(-c2cc(C(C)C)c(O)cc2O)c1-c1ccc(CN2CCOCC2)cc1` [Luminespib (AUY-922)], the “% Enzyme Activity (relative to DMSO controls)” value in test [1] is on record as 100.72%; in test [2] it was 80.99%; in test [3] it was 96.41%; in test [4] it was 117.92%. Also, the remaining activity at 10 µM turned out to be 104% in test [1], 83.5% in test [2], 97.2% in test [3] and 120% in test [4].

As for `CCNC(=O)c1noc(-c2cc(C(C)C)c(O)cc2O)c1-c1ccc(CN2CCOCC2)cc1` [Luminespib], the “% Enzyme Activity (relative to DMSO controls)” value turned out to be 99.07% in test [5], 80.03% in test [6], 90.60% in test [7] and 5.81% in test [8]. In addition, the remaining activity at 10 µM in test [5] was determined as 99.2%; in test [6], 80.1%; in test [7], 91.5%; in test [8] it was 5.9%.
